In patent EP0411495A2, “Ergoline derivatives of proline and related compounds having dopaminergic activity” (priority 1989, dated 1991):
Where two headings read alike, the source gives them in different places.

Columns and labels:
[1] = test system: guinea pig platelet; assay: In vitro guinea pig platelet aggregation induced by ADP; format: cell-based; conditions: guinea pig platelets
Source text: Moreover, compounds (I) have an effective antiag gregating activity on the in vitro guinea pig platelet aggregation induced by ADP.

[2] = test system: mouse; assay: Locomotor activity in the mouse; format: in vivo
[3] = test system: spontaneously hypertensive rats (SHR); assay: Antihypertensive activity on spontaneously hypertensive rats (SHR); format: in vivo, rat; conditions: for Mean arterial pressure % reduction: SHR; for hypotensive activity: result in words
[4] = test system: isolated rat uterus
Source text: All the compounds of the invention have a marked antiserotonin activity in the in vitro test on isolated rat uterus.

[5] = test system: reserpinized rat; assay: Antihyperprolactinemic activity in the reserpinized rat; format: in vivo; conditions: for Plasmatic prolactin % reduction: reserpinized rat; for antihyperprolactinemic activity: result in words
Source text: All compounds (I) have a marked antihyperprolactinemic activity in the reserpinized rat.

[6] = test system: rat; assay: Stereotypy test in the rat; format: in vivo; conditions: for Mean score: stereotypy, rat; for activity on C.N.S.: result in words
[7] = test system: rat seminal vesicle; assay: Adrenolytic activity, in vitro rat seminal vesicle test
Source text: Most of the compounds of formula (I) have a marked adrenolytic activity in the in vitro rat seminal vesicle test.

[8] = test system: mouse; assay: Acute toxicity by the oral route in the mouse; format: in vivo
[9] = antiserotonin activity, in vitro isolated rat uterus
[10] = After 1 hour (dose 0.25 mg/kg os)
[11] = After 2 hours (dose 0.50 mg/kg os)

Structure (SMILES): CC(C)C[C@H]1C(=O)N2CCC[C@H]2[C@]2(O)O[C@](NC(=O)[C@@H]3C[C@@H]4c5cccc6[nH]cc(c56)C[C@H]4N(C)C3)(C(C)C)C(=O)N12 [Dihydro-α-ergocryptine, reference compound]
- Platelet aggregation % reduction ([1]; Dose 20 mcg/ml): 25%
- % inhibition ([2]; dose 20 mg/kg i.p.): 74.3%
- Mean arterial pressure % reduction ([3]; dose = 1 mg/kg i.p.): 18.3%
- Mean arterial pressure % reduction ([3]; dose = 3 mg/kg i.p.): 29.0%
- ED₅₀ [4, 9]: 0.035 µg/mL
- Plasmatic prolactin % reduction [5, 10]: 52.4%
- Plasmatic prolactin % reduction [5, 11]: 66.1%

Structure (SMILES): CC(C)[C@@]1(NC(=O)[C@@H]2C[C@@H]3c4cccc5[nH]cc(c45)C[C@H]3N(C)C2)O[C@@]2(O)[C@@H]3CCCN3C(=O)[C@H](Cc3ccccc3)N2C1=O [Dihydroergocristine, reference compound]
- Mean score ([6]; dose 10 mg/kg i.p.): 2.37
- Platelet aggregation % reduction ([1]; Dose 40 mcg/ml): 25%
- % inhibition ([2]; dose 10 mg/kg i.p.): 47.7%
- Mean arterial pressure % reduction ([3]; dose = 1 mg/kg i.p.): 18.1%
- Mean arterial pressure % reduction ([3]; dose = 3 mg/kg i.p.): 32.0%
- ED₅₀ [4, 9]: 0.007 µg/mL
- Plasmatic prolactin % reduction [5, 10]: 47.4%

Structure (SMILES): CC[C@@H](CO)NC(=O)[C@@H]1C=C2c3cccc4[nH]cc(c34)C[C@H]2N(C)C1 [Methylergometrine, reference compound]
- Mean arterial pressure % reduction ([3]; dose = 1 mg/kg i.p.): 15.7%
- Mean arterial pressure % reduction ([3]; dose = 3 mg/kg i.p.): 29.4%

Structure (SMILES): CC[C@@H](CO)NC(=O)[C@@H]1C=C2c3cccc4c3c(cn4C)C[C@H]2N(C)C1 [Methysergid, reference compound]
- ED₅₀ [7]: 2.48 µg/mL

Structure (SMILES): COC(=O)[C@@H]1CCCN1C(=O)[C@@H]1C=C2c3cccc4[nH]cc(c34)C[C@H]2N(C)C1.O=C(O)/C=C\C(=O)O [P 1409, N-(D-Lysergyl)-L-proline methyl ester maleate]
- activity on C.N.S. [6]: marked activity on C.N.S.
- Mean score ([6]; dose 1.25 mg/kg i.p.): 1.00
- % inhibition ([2]; dose 2.5 mg/kg i.p.): 69.5%
- ED₅₀ [7]: 1.02 µg/mL
- Mean arterial pressure % reduction ([3]; dose = 1 mg/kg i.p.): 22.1%
- Mean arterial pressure % reduction ([3]; dose = 3 mg/kg i.p.): 27.5%
- hypotensive activity [3]: high hypotensive activity
- ED₅₀ [4]: 0.010 µg/mL
- antiserotonin activity [4]: remarkable antiserotonin activity

Structure (SMILES): CN1C[C@H](C(=O)N2CCC[C@H]2CO)C=C2c3cccc4[nH]cc(c34)C[C@H]21.O=C(O)/C=C\C(=O)O [P 1410]
- activity on C.N.S. [6]: marked activity on C.N.S.
- Mean score ([6]; dose 10 mg/kg i.p.): 2.62
- Mean arterial pressure % reduction ([3]; dose = 1 mg/kg i.p.): 17.8%
- hypotensive activity [3]: high hypotensive activity
- ED₅₀ [4, 9]: 0.059 µg/mL
- antiserotonin activity ([4]; result in words): remarkable antiserotonin activity
- Plasmatic prolactin % reduction [5, 10]: 65.7%
- antihyperprolactinemic activity [5]: interesting antihyperprolactinemic activity

Structure (SMILES): CN1C[C@H](C(=O)N2CCC[C@H]2C(=O)O)C=C2c3cccc4[nH]cc(c34)C[C@H]21 [P 1411]
- % inhibition ([2]; dose 20 mg/kg i.p.): 80.9%
- ED₅₀ [4, 9]: 0.370 µg/mL

Structure (SMILES): COC(=O)[C@@H]1C[C@@H](O)CN1C(=O)[C@@H]1C=C2c3cccc4[nH]cc(c34)C[C@H]2N(C)C1.O=C(O)/C=C\C(=O)O [P 1413, N-(D-Lysergyl)-4-hydroxy-L-proline methyl ester maleate]
- ED₅₀ [4]: 0.004 µg/mL
- antiserotonin activity [4]: remarkable antiserotonin activity

Structure (SMILES): CN1C[C@H](C(=O)N2C[C@H](O)C[C@H]2CO)C=C2c3cccc4[nH]cc(c34)C[C@H]21 [P 1414, N-(D-Lysergyl)-4-hydroxy-L-prolinol]
- Mean arterial pressure % reduction ([3]; dose = 1 mg/kg i.p.): 17.9%
- Mean arterial pressure % reduction ([3]; dose = 3 mg/kg i.p.): 31.2%
- hypotensive activity [3]: high hypotensive activity
- ED₅₀ [4, 9]: 0.007 µg/mL

Structure (SMILES): CN1C[C@H](C(=O)N2CC(O)C[C@H]2CO)C=C2c3cccc4[nH]c(Br)c(c34)C[C@H]21 (stereo partly shown) [P 1415]
- ED₅₀ [7]: 0.95 µg/mL
- ED₅₀ [4, 9]: 0.015 µg/mL
- antiserotonin activity ([4]; result in words): remarkable antiserotonin activity

Structure (SMILES): CN1C[C@H](C(=O)N2CC(O)C[C@H]2CO)C=C2c3cccc4c3c(cn4C)C[C@H]21.Cl (stereo partly shown) [P 1417]
- ED₅₀ [7]: 3.52 µg/mL
- ED₅₀ [4, 9]: 0.001 µg/mL
- antiserotonin activity ([4]; result in words): remarkable antiserotonin activity

Structure (SMILES): CN1C[C@H](C(=O)N2CCC[C@H]2C#N)C=C2c3cccc4[nH]cc(c34)C[C@H]21.Cl [P 1419]
- acute toxicity [8]: slightly more toxic
- activity on C.N.S. [6]: marked activity on C.N.S.
- Mean score ([6]; dose 0.625 mg/kg i.p.): 2.50
- % inhibition ([2]; dose 0.625 mg/kg i.p.): 63.2%
- ED₅₀ [7]: 0.22 µg/mL
- ED₅₀ [4, 9]: 0.073 µg/mL
- Plasmatic prolactin % reduction [5, 10]: 68.4%
- Plasmatic prolactin % reduction [5, 11]: 84.1%
- antihyperprolactinemic activity [5]: interesting antihyperprolactinemic activity

Structure (SMILES): CN1C[C@H](C(=O)N2CCC[C@H]2C#N)C=C2c3cccc4c3c(cn4C)C[C@H]21.Cl [P 1420]
- acute toxicity [8]: slightly more toxic
- activity on C.N.S. [6]: marked activity on C.N.S.
- Mean score ([6]; dose 2.5 mg/kg i.p.): 2.17
- % inhibition ([2]; dose 5 mg/kg i.p.): 82.7%
- ED₅₀ [7]: 0.50 µg/mL
- ED₅₀ [4, 9]: 0.003 µg/mL
- antiserotonin activity ([4]; result in words): remarkable antiserotonin activity
- Plasmatic prolactin % reduction [5, 10]: 50.1%
- antihyperprolactinemic activity [5]: interesting antihyperprolactinemic activity

Structure (SMILES): CN1C[C@H](CN2CCC[C@H]2CO)C=C2c3cccc4[nH]cc(c34)C[C@H]21.Cl.Cl [P 1421]
- Platelet aggregation % reduction ([1]; Dose 40 mcg/ml): 25%
- ED₅₀ [7]: 2.82 µg/mL
- ED₅₀ [4, 9]: 0.011 µg/mL
- antiserotonin activity ([4]; result in words): remarkable antiserotonin activity

Structure (SMILES): CN1CC(C(=O)N2CC(O)CC2CO)CC2c3cccc4[nH]cc(c34)CC21 (stereo not shown) [P 1422]
- % inhibition ([2]; dose 20 mg/kg i.p.): 79.8%
- ED₅₀ [7]: 2.89 µg/mL
- Mean arterial pressure % reduction ([3]; dose = 1 mg/kg i.p.): 18.8%
- Mean arterial pressure % reduction ([3]; dose = 3 mg/kg i.p.): 40.8%
- hypotensive activity [3]: high hypotensive activity
- ED₅₀ [4, 9]: 0.014 µg/mL
- antiserotonin activity ([4]; result in words): remarkable antiserotonin activity
- Plasmatic prolactin % reduction [5, 10]: 77.1%
- antihyperprolactinemic activity [5]: interesting antihyperprolactinemic activity

Structure (SMILES): CC(C)C[C@H]1C(=O)N2CCC[C@H]2[C@]2(O)O[C@](NC(=O)[C@@H]3C=C4c5cccc6[nH]c(Br)c(c56)C[C@H]4N(C)C3)(C(C)C)C(=O)N12 [α-Bromocryptine, reference compound]
- Mean score ([6]; dose 10 mg/kg i.p.): 2.25
- Platelet aggregation % reduction ([1]; Dose 80 mcg/ml): 25%
- % inhibition ([2]; dose 10 mg/kg i.p.): 78.7%
- ED₅₀ [4, 9]: 0.470 µg/mL
- Plasmatic prolactin % reduction [5, 10]: 78.2%
- Plasmatic prolactin % reduction [5, 11]: 80.9%
